According to PMC7076013 (Scientific Reports, 2020):
Each block holds one substance with its values, some of them ahead of it.

How the values were obtained:
[1] = tested on: HCT116, human colon carcinoma; assay: MTT cell viability, HCT116; type: cell-based; conditions: 48 h
Protocol: (§1) Both melanoma and colon cancer are tumor types tightly connected with inflammation, while the expression of COX-2 in the selected cell lines was highly variable. Since a lot of discrepancies were found in the literature concerning the expression of this enzyme[5],[48]–[53], both COX-1 and COX-2 expression was analyzed by Western blot. […] The cells were treated with a wide range of doses of 4a–c, 5, and 6 for 48 h and cell viability was determined by MTT (3-(4,5-dimethylthiazol-2-yl)-2,5-diphenyltetrazolium bromide) and CV (crystal violet) assays. The obtained IC50 values were similar for both assays (Table 1).
(§2) Reagents were obtained from Sigma (St. Louis, MO) unless indicated otherwise. Annexin V - FITC (AnnV) was acquired from Biotium (Hayward, CA) and Apostat from R&D (R&D S ystems, Minneapolis, MN USA). […] After being detached b y tr ypsinization, cells were seeded in defined number as follows: 2.5 × 10^3 cells/well in 96-well plates for viability assessment and 2 × 10^4 cells/well in 24-well plates for flow cytometry. […]
(§3) Committee at IBISS (02- 09/1 6). Cells were counted and seeded in 96-well plates and incubat ed overnight. Before treatment, non- adherent cells were removed. Compounds 4a- c, 5 and 6 were dissolved in DMSO and stored at −20 °C for a m onth. Working solutions were freshl y prepared in 10% FCS-RPMI-1640. Controls were treated with culture medium containing the equivalent […]
(§4) 3.2. Cell viability tests.
(§5) The number of viable cel ls in culture was estimated by the MTT (3-(4,5- dimethylthiazol- 2-yl ) - 2,5- diphenyltetrazolium bromide) and CV (crystal violet) tests. Cells were incubated in the presence of compounds 4a- c, 5 and 6 for 48 h, then the viability was measured as described.4 […]
(§6) The results were ex pressed as a p er centage of a v alue obtained for the untr eated control cells that was arbitrarily set to be 100%. A non- linear regression analysis of obtained results was done b y using Gr aphPad Prism software to calculat e IC50 values. […]

[2] = tested on: B16, mouse solid melanoma; assay: CV (crystal violet) cell viability, B16; type: cell-based; conditions: for IC50: 48 h; for Selectivity index B16: IC50 macrophages / IC50 cancer
Protocol: as §1
as §2, with “cytometry. Peritoneal resident” for “cytometry.”
(§7) for Biolo gical Research “Siniša Stanković” b y peritoneal lav age with an ice- cold phosphate buffer solution (PBS). The handling of animals and protocol for obtaining cells is in agreement with the rules of the European Union and approved by the Institutional Animal Care and Use Committee at IBISS (02- 09/1 6). Cells were counted and seeded in 96-well plates and incubat ed overnight. Before treatment, non- adherent cells were removed. Compounds 4a- c, 5 and 6 were dissolved in DMSO and stored at −20 °C for a m onth. Working solutions were freshl y prepared in 10% FCS-RPMI-1640. Controls were treated with culture medium containing the equivalent […]
as §4, §5, §6

[3] = tested on: SW480, human colon carcinoma; assay: CV (crystal violet) cell viability, SW480; type: cell-based; conditions: for IC50: 48 h; for Selectivity index SW480: IC50 macrophages / IC50 cancer
Protocol: as §1
(§8) Reagents were obtained from Sigma (St. Louis, MO) unless indicated otherwise. […]
S ystems, Minneapolis, MN USA). […] After being detached b y tr ypsinization, cells were seeded in defined number as follows: 2.5 × 10^3 cells/well in 96-well plates for viability assessment and 2 × 10^4 cells/well in 24-well plates for flow cytometry. Peritoneal resident […]
as §7, §4, §5, §6

[4] = tested on: SW480, human colon carcinoma; assay: MTT cell viability, SW480; type: cell-based; conditions: 48 h
Protocol: as §1, §8
S ystems, Minneapolis, MN USA). […] After being detached b y tr ypsinization, cells were seeded in defined number as follows: 2.5 × 10^3 cells/well in 96-well plates for viability assessment and 2 × 10^4 cells/well in 24-well plates for flow cytometry. […]
Before treatment, non- adherent cells were removed. Compounds 4a- c, 5 and 6 were dissolved in DMSO and stored at −20 °C for a m onth. Working solutions were freshl y prepared in 10% FCS-RPMI-1640. Controls were treated with culture medium containing the equivalent […]
as §4, §5, §6

[5] = tested on: CT26CL25, mouse colon carcinoma; assay: MTT cell viability, CT26CL25; type: cell-based; conditions: 48 h
Protocol: as §1, §2, §3, §4, §5, §6

[6] = tested on: CT26CL25, mouse colon carcinoma; assay: CV (crystal violet) cell viability, CT26CL25; type: cell-based; conditions: for IC50: 48 h; for Selectivity index CT26CL25: IC50 macrophages / IC50 cancer
Protocol: as §1
as §2, with “cytometry. Peritoneal resident” for “cytometry.”
as §7, §4, §5, §6

ovine COX-1 = target: T1, ovine COX-1 (Ovis aries, UniProt P05979); assay: COX Fluorescent Inhibitor Screening Assay, COX-1; type: biochemical; conditions: ovine COX-1, Cayman kit 700100
T1 construct: purchased Cayman Chemical Item No. 700100 (assay kit)
T1 sequence (P05979 25-600): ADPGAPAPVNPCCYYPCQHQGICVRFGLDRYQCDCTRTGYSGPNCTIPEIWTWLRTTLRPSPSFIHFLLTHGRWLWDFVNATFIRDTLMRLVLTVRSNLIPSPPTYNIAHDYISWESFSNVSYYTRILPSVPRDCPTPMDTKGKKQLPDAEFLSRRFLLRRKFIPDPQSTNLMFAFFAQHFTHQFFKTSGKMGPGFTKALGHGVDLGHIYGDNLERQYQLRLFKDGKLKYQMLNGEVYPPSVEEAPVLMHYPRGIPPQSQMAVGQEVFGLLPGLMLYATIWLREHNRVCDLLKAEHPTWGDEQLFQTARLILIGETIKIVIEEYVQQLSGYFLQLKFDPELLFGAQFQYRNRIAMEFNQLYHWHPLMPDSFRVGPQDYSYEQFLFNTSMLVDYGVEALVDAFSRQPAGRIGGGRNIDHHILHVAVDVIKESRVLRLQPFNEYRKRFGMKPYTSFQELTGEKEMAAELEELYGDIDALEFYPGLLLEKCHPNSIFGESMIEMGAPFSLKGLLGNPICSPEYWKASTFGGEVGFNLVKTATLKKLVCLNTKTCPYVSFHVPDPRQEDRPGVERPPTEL
Protocol: The synthesized compounds were tested in vitro for their potential to inhibit ovine COX-1 and human recombinant COX-2.
*All compounds were measured with the Cytation 5 plate reader and the "COX Fluorescent Inhibitor […]
chemi cals, USA) " according to the manufacturer's
Error bars indicate standard error mean (SEM) obtained from two measurements at each concentration.
(1 picture or pasted object on this page, not shown here)

[7] = tested on: HCT116, human colon carcinoma; assay: CV (crystal violet) cell viability, HCT116; type: cell-based; conditions: for IC50: 48 h; for Selectivity index HCT116: IC50 macrophages / IC50 cancer
Protocol: as §1
as §2, with “cytometry. Peritoneal resident” for “cytometry.”
as §7, §4, §5, §6

A375, human melanoma = assay: CV (crystal violet) cell viability, A375; type: cell-based; conditions: for IC50: 48 h; for Selectivity index A375: IC50 macrophages / IC50 cancer
Protocol: as §1
as §2, with “cytometry. Peritoneal resident” for “cytometry.”
as §7, §4, §5, §6

518A2, human melanoma [8] = assay: MTT cell viability, 518A2; type: cell-based; conditions: 48 h
Protocol: as §1, §2, §3, §4, §5, §6

518A2, human melanoma [9] = assay: CV (crystal violet) cell viability, 518A2; type: cell-based; conditions: for IC50: 48 h; for Selectivity index 518A2: IC50 macrophages / IC50 cancer
Protocol: as §1
as §2, with “cytometry. Peritoneal resident” for “cytometry.”
as §7, §4, §5, §6

IC50 [1]: 22.2 ± 0.95 µM | IC50 [2]: 30.8 ± 3.22 µM | IC50 [3]: 26.8 ± 2.81 µM | IC50 [4]: 24.2 ± 1.05 µM | IC50 [5]: 28.4 ± 2.46 µM | IC50 [6]: 29.2 ± 2.86 µM | IC50 (ovine COX-1): > 100 µM | IC50 [7]: 19.2 ± 1.46 µM | IC50 (A375, human melanoma): 10.5 ± 0.75 µM | IC50 (518A2, human melanoma [8]): 36.35 ± 0.21 µM | IC50 (518A2, human melanoma [9]): 41.2 ± 2.12 µM
Substance: 4-[4-(hydroxymethyl)phenyl]-3-(1,2-dicarba-closo-dodecaboranyl)furan-2(5H)-one [Compound 4c]
Selectivity index B16 [2]: 2.1 | Selectivity index SW480 [3]: 2.5 | Selectivity index CT26CL25 [6]: 2.3 | Selectivity index HCT116 [7]: 3.4 | Selectivity index A375 (A375, human melanoma): 6.3 | Selectivity index 518A2 (518A2, human melanoma [9]): 1.6

IC50 [1]: 42.5 ± 1.42 µM | IC50 [2]: 22.2 ± 0.65 µM | IC50 [3]: 35.9 µM | IC50 [4]: 42.5 µM | IC50 [5]: 38.1 ± 0.9 µM | IC50 [6]: 36.1 ± 1.25 µM | IC50 (ovine COX-1): > 100 µM | IC50 [7]: 35.9 µM | IC50 (A375, human melanoma): 14.1 ± 0.75 µM | IC50 (518A2, human melanoma [8]): 13.8 ± 0.21 µM | IC50 (518A2, human melanoma [9]): 14.8 ± 0.92 µM
Substance: 4-[4-(methylsulfonyl)phenyl]-3-(1,2-dicarba-closo-dodecaboranyl)furan-2(5H)-one [Compound 4b]
Selectivity index B16 [2]: 3.0 | Selectivity index SW480 [3]: 1.8 | Selectivity index CT26CL25 [6]: 1.8 | Selectivity index HCT116 [7]: 1.8 | Selectivity index A375 (A375, human melanoma): 4.7 | Selectivity index 518A2 (518A2, human melanoma [9]): 4.5

IC50 [1]: 13.5 µM | IC50 [2]: 30.6 ± 3.86 µM | IC50 [3]: 19 ± 1.91 µM | IC50 [4]: 22.8 ± 0.7 µM | IC50 [5]: 42.6 ± 3.17 µM | IC50 [6]: 37.2 ± 2.21 µM | IC50 (ovine COX-1): > 100 µM | IC50 [7]: 12.8 ± 0.5 µM | IC50 (A375, human melanoma): 16 ± 1.65 µM | IC50 (518A2, human melanoma [8]): 18.9 ± 1.63 µM | IC50 (518A2, human melanoma [9]): 21.4 ± 0.42 µM
Substance: 4-phenyl-3-(1,2-dicarba-closo-dodecaboranyl)furan-2(5 H)-one [Compound 4a]
Selectivity index B16 [2]: 1.6 | Selectivity index SW480 [3]: 2.6 | Selectivity index CT26CL25 [6]: 1.3 | Selectivity index HCT116 [7]: 3.8 | Selectivity index A375 (A375, human melanoma): 3.1 | Selectivity index 518A2 (518A2, human melanoma [9]): 2.3

More lines, now with the values behind:

Substance: 4-[4-(methylnitrooxy)phenyl]-3-(1,2-dicarba-closo-dodecaboranyl)furan-2(5 H)-one [Compound 5]
IC50 [1]: 8.9 µM | IC50 [2]: 11.5 ± 1.05 µM | Selectivity index B16 [2]: 3.2 | IC50 [3]: 8.6 ± 0.21 µM | Selectivity index SW480 [3]: 4.3 | IC50 [4]: 16.6 ± 1.01 µM | IC50 [5]: 31.4 ± 3.27 µM | IC50 [6]: 29.4 ± 2.12 µM | Selectivity index CT26CL25 [6]: 1.3 | IC50 (ovine COX-1): > 100 µM | IC50 [7]: 9.95 ± 0.95 µM | Selectivity index HCT116 [7]: 3.7 | IC50 (A375, human melanoma): 4.7 ± 0.3 µM | Selectivity index A375 (A375, human melanoma): 7.9 | IC50 (518A2, human melanoma [8]): 5.15 ± 0.64 µM | IC50 (518A2, human melanoma [9]): 5.5 ± 0.57 µM | Selectivity index 518A2 (518A2, human melanoma [9]): 6.7

Substance: R,S-7-(2-oxo-4-(4-sulfamoylphenyl)-2,5-dihydrofuran-3-yl)-7,8-dicarba-nido-dodeca-hydroundecaborate(–1) sodium [Compound 6]
IC50 [1]: > 50 µM | IC50 [2]: > 50 µM | IC50 [3]: > 50 µM | IC50 [4]: > 50 µM | IC50 [5]: > 50 µM | IC50 [6]: > 50 µM | IC50 (ovine COX-1): > 100 µM | IC50 [7]: > 50 µM | IC50 (A375, human melanoma): > 50 µM | IC50 (518A2, human melanoma [8]): 36.9 ± 0.49 µM | IC50 (518A2, human melanoma [9]): 49.7 ± 0.42 µM
